For four compounds, IC50 results are on record in patent US5580982A, “Substituted 3-(aminoalkylamino)-1,2-benzisoxazoles and related compounds” (priority 1995, dated 1996).

Bounds are passed on as bounds.

Assay [1] addresses T1, MAO-A (Rattus norvegicus, UniProt P21396).
T1 construct: the whole brain without cerebellum was dissected rapidly and frozen on dry ice; from tissue; host or cells: whole brain without cerebellum of orally dosed male Wistar rats, homogenate
T1 sequence (P21396 1-526): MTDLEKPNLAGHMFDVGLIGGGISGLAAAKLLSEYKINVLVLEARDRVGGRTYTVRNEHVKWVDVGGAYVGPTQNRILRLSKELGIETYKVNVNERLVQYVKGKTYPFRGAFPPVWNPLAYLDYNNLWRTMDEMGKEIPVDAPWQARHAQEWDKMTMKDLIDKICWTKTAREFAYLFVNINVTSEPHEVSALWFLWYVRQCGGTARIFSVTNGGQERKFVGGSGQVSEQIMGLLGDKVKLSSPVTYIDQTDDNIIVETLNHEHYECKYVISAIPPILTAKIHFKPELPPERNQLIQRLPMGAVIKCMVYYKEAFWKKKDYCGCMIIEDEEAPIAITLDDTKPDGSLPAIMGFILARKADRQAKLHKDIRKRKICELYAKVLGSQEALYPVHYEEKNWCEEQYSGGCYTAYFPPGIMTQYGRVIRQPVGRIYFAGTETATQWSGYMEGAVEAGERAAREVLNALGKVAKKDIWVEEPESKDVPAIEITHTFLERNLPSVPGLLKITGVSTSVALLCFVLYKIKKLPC
The assay can be described thus: Inhibition of Type A monoamine oxidase activity in rat brain synaptosomes. Format: biochemical. As to conditions: substrate [^3 H]-5HT 200 μM; read-out: Inhibitory Concentration - IC50 MAO-A. On the procedure:
Inhibition of Type A and Type B Monoamine Oxidase Activity in Rat Brain Synaptosomes
To determine the selective inhibition of the two forms of monoamine oxidase (MAO).
Although various methods for measuring MAO activity are available, the described method involves the extraction of the radiolabeled deaminated metabolites of [^3 H]-5HT or [^14 C]-β-phenethylamine. This procedure allows MAO-A and MAO-B activities to be measured either simultaneously or individually (3).
c. Add 12 μl of [^3 H]-5HT to 2 ml of the 5 mM 5HT solution. (Final amine concentration in the assay is 200 μM: see below.)
5. Equal amounts of MAO-A (5HT) and MAO-B (PEA) substrates are combined for simultaneously testing both MAO types, i.e. mixed stock solution of 2.5 mM 5HT and 2.5 mM PEA, 40 μl of this mixed solution gives a 200 μM final concentration of each amine in the assay. When testing only one MAO type, the individual 5 mM stock solutions must be diluted 1:1 with distilled water prior to adding 40 μl to the incubation mixture; i.e., same 200 μM final amine concentration.
Male Wistar rats weighing 150-250 grams were sacrificed and the brains rapidly removed. Whole brain minus cerebellum was homogenized in 30 volumes of ice-cold, phosphate-buffered 0.25M sucrose, using a Potter-Elvejhem homogenizer. The homogenate was centrifuged at 1000 g for 10 minutes and the supernatant (S1) decanted and recentrifuged at 18,000 g for 20 minutes. The resulting pellet (P2) was resuspended in fresh 0.25M sucrose and served as the tissue source for mitochondrial MAO.
Tubes are preincubated for 15 minutes at 37° C. and the assay is started by adding 40 μl of combined substrate ([^3 H]-5HT and [^14 C]-PEA) at 15 second intervals. The tubes are incubated for 30 minutes at 37° C. and the reaction stopped by the addition of 0.3 ml 2N HCl. Tissue blank values are determined by adding the acid before the radioactive substrate. The oxidative products of the reaction are extracted with ethyl acetate/toluene (1:1). 5 ml of this mixture is added to the tubes. The resultant mixture is vortexed for 15 seconds to extract the deaminated metabolites into the organic phase and the latter is allowed to separate from the aqueous phase. The tubes are placed in acetone/dry ice bath to freeze the aqueous layer. When this layer is frozen, the top organic layer is poured into a scintillation vial. 10 ml of Liquiscint is added and the samples are counted using window settings for ^14 C in one channel and ^3 H in the second channel. IC50 values are determined by log-probit analysis.

In assay [2] the target is T2, MAO-B (Rattus norvegicus, UniProt P19643).
T2 construct: the whole brain without cerebellum was dissected rapidly and frozen on dry ice; from tissue; host or cells: whole brain without cerebellum of orally dosed male Wistar rats, homogenate
T2 sequence (P19643 1-520): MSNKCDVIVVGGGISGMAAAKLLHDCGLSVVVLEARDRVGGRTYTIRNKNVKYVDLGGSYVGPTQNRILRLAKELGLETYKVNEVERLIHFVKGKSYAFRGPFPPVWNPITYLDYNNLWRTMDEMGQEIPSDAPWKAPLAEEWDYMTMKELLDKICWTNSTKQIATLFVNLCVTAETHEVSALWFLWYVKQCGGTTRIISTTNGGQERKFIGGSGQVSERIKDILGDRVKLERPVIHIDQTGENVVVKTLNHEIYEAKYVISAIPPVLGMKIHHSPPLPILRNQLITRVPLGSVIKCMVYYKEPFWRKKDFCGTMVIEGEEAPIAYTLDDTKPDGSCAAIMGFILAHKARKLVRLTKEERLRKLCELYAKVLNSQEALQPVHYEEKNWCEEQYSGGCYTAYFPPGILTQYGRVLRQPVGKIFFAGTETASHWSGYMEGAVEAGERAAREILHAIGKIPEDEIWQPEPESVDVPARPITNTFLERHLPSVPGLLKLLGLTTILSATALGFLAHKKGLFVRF
The assay is described as follows: Inhibition of Type B monoamine oxidase activity in rat brain synaptosomes. Format: biochemical. The settings on record: substrate [^14 C]-PEA 200 μM; read-out: Inhibitory Concentration - IC50 MAO-B. The source says:
Male Wistar rats weighing 150-250 grams were sacrificed and the brains rapidly removed.

For the compound `COc1ccc2c(N(C)CCN3CCOCC3)noc2c1` [6-Methoxy-N-methyl-N-[2-(4-morpholinyl)ethyl]-1,2-benzisoxazol-3-amine], the IC50 was 13 µM in assay [1] and above 1000 µM in assay [2].
Consider `COc1cc(Br)c2oc(C3CCNCC3)cc2c1` [Brofaromine, reference compound], for which, in assay [1], the IC50 turned out to be 0.18 µM.
As to `COc1ccc2c(N3CCN(c4ccncc4)CC3)noc2c1` [6-Methoxy-3-[1-(4-pyridyl)piperazinyl)]-1,2-benzisoxazole], the IC50 in assay [1] came to 10 µM; in assay [2] it was 45 µM.
On to `CNCCNc1noc2cc(OC)ccc12` [6-Methoxy-N-[2-(methylamino)ethyl)-1,2-benzisoxazol-3-amine], for which, in assay [1], the IC50 amounted to 25 µM.
